In patent US20220264887A1, “Foam Formulations For Decontamination Of Surfaces With Minimum Wastewater” (The Trustees of Columbia University in the City of New York, priority 2020, published 2022):

What was measured:
Assay type in all cases: physicochemical
[1] = Surface tension / CMC of surfactants and mixtures by tensiometer, with and without hypochlorite; conditions: for No hypochlorite (CMC): after 24 hours of preparation; for change of CMC value in the presence of hypochlorite: presence vs absence of hypochlorite
Experimental: Thus, the foam formulations were stable in terms of surfactants retaining their surface activity for the foam-deployment-on-surface application.
The surface tension values for pure surfactants and their mixtures—formulations—were determined in the presence and absence of hypochlorite (Table 1). […] The surface tension values for CAPB, taurate, SDS, and surfactin determined after 24 hours of preparation of these solutions, and in the absence and presence of hypochlorite are given in Table 1 and FIGS. 1, 2, and 3; Taurate was used for fundamental reasons and was not considered in preparing the final formulation(s). (The surface tension values were determined using a tensiometer.)
(§1) The CMC values for these surfactants in the absence of hypochlorite, were as reported in the literature. […] A chlorine strip was used to determine hypochlorite degradation.

[2] = Hypochlorite degradation in formulation by chlorine strip; conditions: after 24 hrs
From the text: as §1

[3] = Raman microscopy of hypochlorite degradation (ClO-/ClO4- peak ratio); conditions: freshly prepared 1% solution in water
From the text: To monitor degradation of hypochlorite in the formulations (liquids), foams, and deposit residues, one can use Raman microscopy. Raman spectra were acquired using a Horiba Aramis confocal Raman microscope with a 10× objective (numerical aperture 0.25), a 1200 grooves/mm diffraction grating, and a 17-mW 633-nm HeNe laser without attenuation. The monochromator was calibrated before each set of measurements using the Si peak at 520.7 cm-1 of a Si wafer reference sample.
The degradation of hypochlorite ion (ClO—) was assessed by the intensity ratio of the main Raman peaks of ClO— at 715 cm-1 and perchlorate ClO4- at 937 cm-1 (FIG. 8). Perchlorate is a product of the final degradation of hypochlorite.

[4] = presence of hypochlorite 0.7-1 wt. % CL

Molecule | Min surface tension ([1]; absence of hypochlorite) [mN/m] | No hypochlorite (CMC) ([1]; absence of hypochlorite) [g/L] | 0.7-1% hypochlorite (CMC) [1, 4] [g/L] | Min surface tension [1, 4] [mN/m] | change of CMC value in the presence of hypochlorite [1] | decrease of hypochlorite concentration in the formulation [2] | ClO-/ClO4- Raman peak ratio [3] | fraction of hypochlorite already degraded ([3]; from peak ratio)
CCCCCCCCCCCCOS(=O)(=O)[O-].[Na+] [SDS, Sodium dodecyl sulfate] | 28 | 2.4 | 2.6 | 28 | increased slightly |  |  | 
NCCS(=O)(=O)O [Taurate] |  |  |  |  | increased slightly |  |  | 
[Na+].[O-]Cl [hypochlorite, sodium hypochlorite] |  |  |  |  |  | 30-40% | about 2 | about 30%
cocamidopropyl betaine [CAPB] | 28 | 0.3 | 0.31 | 28 | a small decrease or no change |  |  | 
